Experimental data reported in PubChem BioAssay AID1259407 (Chemical Carcinogenesis Research Information System (CCRIS), 2018).
Calls of active or inactive are those of the source. How the calls were made is not given here.

Test system: CCRIS mutagenicity, Ames/micronucleus/aberration tests
Assay: CCRIS mutagenicity studies

Measured: mutagenic call

O=Cc1ccccc1
inactive: End Point: IN VITRO CHROMOSOMAL ABERRATIONS, Test System: CHINESE HAMSTER OVARY CELLS, Metabolic Activation: NONE inactive; negative | End Point: IN VITRO CHROMOSOMAL ABERRATIONS, Test System: CHINESE HAMSTER OVARY CELLS, Metabolic Activation: RAT, LIVER, S-9, AROCLOR 1254 inactive; negative | End Point: In vitro chromosomal aberrations, Test System: Chinese hamster lung (CHL/IU) cells, Metabolic Activation: Rat, Liver, S9, Phenobarbital and 5,6-benzoflavone inactive; negative. weak positive response for ploidy is not dose related. | Test System: AMES SALMONELLA TYPHIMURIUM, Strain/Indicator: TA97, Metabolic Activation: NONE, Method: PREINCUBATION inactive; negative | Test System: AMES SALMONELLA TYPHIMURIUM, Strain/Indicator: TA97, Metabolic Activation: RAT, LIVER, S-9, AROCLOR 1254, Method: PREINCUBATION inactive; negative | Test System: AMES SALMONELLA TYPHIMURIUM, Strain/Indicator: TA98, Metabolic Activation: HAMSTER, LIVER, S-9, AROCLOR 1254 (10%), Method: PREINCUBATION inactive; negative | Test System: AMES SALMONELLA TYPHIMURIUM, Strain/Indicator: TA98, Metabolic Activation: NONE, Method: FLUCTUATION (MICROTITER) inactive; negative | Test System: AMES SALMONELLA TYPHIMURIUM, Strain/Indicator: TA98, Metabolic Activation: NONE, Method: PREINCUBATION inactive; negative | Test System: AMES SALMONELLA TYPHIMURIUM, Strain/Indicator: TA98, Metabolic Activation: RAT LIVER S-9, AROCLOR 1254, Method: FLUCTUATION (MICROTITER) inactive; negative | Test System: AMES SALMONELLA TYPHIMURIUM, Strain/Indicator: TA98, Metabolic Activation: RAT LIVER S-9, PHENOBARBITAL AND BETA-NAPHTHOFLAVONE, Method: PREINCUBATION inactive; negative | Test System: AMES SALMONELLA TYPHIMURIUM, Strain/Indicator: TA98, Metabolic Activation: RAT, LIVER, S-9, AROCLOR 1254 (10%), Method: PREINCUBATION inactive; negative | Test System: AMES SALMONELLA TYPHIMURIUM, Strain/Indicator: TA100, Metabolic Activation: HAMSTER, LIVER, S-9, AROCLOR 1254 (10%), Method: PREINCUBATION inactive; negative | Test System: AMES SALMONELLA TYPHIMURIUM, Strain/Indicator: TA100, Metabolic Activation: MOUSE, LIVER, S-9, AROCLOR 1254 (10%), Method: PREINCUBATION inactive; negative | Test System: AMES SALMONELLA TYPHIMURIUM, Strain/Indicator: TA100, Metabolic Activation: RAT LIVER S-9, AROCLOR 1254, Method: PREINCUBATION inactive; negative | Test System: AMES SALMONELLA TYPHIMURIUM, Strain/Indicator: TA100, Metabolic Activation: RAT LIVER S-9, PHENOBARBITAL AND BETA-NAPHTHOFLAVONE, Method: PREINCUBATION inactive; negative | Test System: AMES SALMONELLA TYPHIMURIUM, Strain/Indicator: TA100, Metabolic Activation: RAT, LIVER, S-9, AROCLOR 1254 (10%), Method: PREINCUBATION inactive; negative | Test System: AMES SALMONELLA TYPHIMURIUM, Strain/Indicator: TA102, Metabolic Activation: MOUSE, LIVER, S-9, AROCLOR 1254 (10%), Method: PREINCUBATION inactive; negative | Test System: AMES SALMONELLA TYPHIMURIUM, Strain/Indicator: TA102, Metabolic Activation: NONE, Method: PREINCUBATION inactive; negative | Test System: AMES SALMONELLA TYPHIMURIUM, Strain/Indicator: TA102, Metabolic Activation: RAT LIVER S-9, AROCLOR 1254, Method: PREINCUBATION inactive; negative | Test System: AMES SALMONELLA TYPHIMURIUM, Strain/Indicator: TA102, Metabolic Activation: RAT, LIVER, S-9, AROCLOR 1254 (10%), Method: PREINCUBATION inactive; negative | Test System: AMES SALMONELLA TYPHIMURIUM, Strain/Indicator: TA102, Metabolic Activation: RAT, LIVER, S-9, AROCLOR 1254, Method: PREINCUBATION inactive; negative | Test System: AMES SALMONELLA TYPHIMURIUM, Strain/Indicator: TA104, Metabolic Activation: MOUSE, LIVER, S-9, AROCLOR 1254 (10%), Method: PREINCUBATION inactive; negative | Test System: AMES SALMONELLA TYPHIMURIUM, Strain/Indicator: TA104, Metabolic Activation: NONE, Method: PREINCUBATION inactive; negative | Test System: AMES SALMONELLA TYPHIMURIUM, Strain/Indicator: TA104, Metabolic Activation: RAT LIVER S-9, AROCLOR 1254, Method: PREINCUBATION inactive; negative | Test System: AMES SALMONELLA TYPHIMURIUM, Strain/Indicator: TA104, Metabolic Activation: RAT, LIVER, S-9, AROCLOR 1254 (10%), Method: PREINCUBATION inactive; negative | Test System: AMES SALMONELLA TYPHIMURIUM, Strain/Indicator: TA1535, Metabolic Activation: HAMSTER, LIVER, S-9, AROCLOR 1254 (10%), Method: PREINCUBATION inactive; negative | Test System: AMES SALMONELLA TYPHIMURIUM, Strain/Indicator: TA1535, Metabolic Activation: NONE, Method: PREINCUBATION inactive; negative | Test System: AMES SALMONELLA TYPHIMURIUM, Strain/Indicator: TA1535, Metabolic Activation: RAT LIVER S-9, PHENOBARBITAL AND BETA-NAPHTHOFLAVONE, Method: PREINCUBATION inactive; negative | Test System: AMES SALMONELLA TYPHIMURIUM, Strain/Indicator: TA1535, Metabolic Activation: RAT, LIVER, S-9, AROCLOR 1254 (10%), Method: PREINCUBATION inactive; negative | Test System: AMES SALMONELLA TYPHIMURIUM, Strain/Indicator: TA1537, Metabolic Activation: HAMSTER, LIVER, S-9, AROCLOR 1254 (10%), Method: PREINCUBATION inactive; negative | Test System: AMES SALMONELLA TYPHIMURIUM, Strain/Indicator: TA1537, Metabolic Activation: NONE, Method: FLUCTUATION (MICROTITER) inactive; negative | Test System: AMES SALMONELLA TYPHIMURIUM, Strain/Indicator: TA1537, Metabolic Activation: NONE, Method: PREINCUBATION inactive; negative | Test System: AMES SALMONELLA TYPHIMURIUM, Strain/Indicator: TA1537, Metabolic Activation: RAT LIVER S-9, AROCLOR 1254, Method: FLUCTUATION (MICROTITER) inactive; negative | Test System: AMES SALMONELLA TYPHIMURIUM, Strain/Indicator: TA1537, Metabolic Activation: RAT LIVER S-9, PHENOBARBITAL AND BETA-NAPHTHOFLAVONE, Method: PREINCUBATION inactive; negative | Test System: AMES SALMONELLA TYPHIMURIUM, Strain/Indicator: TA1537, Metabolic Activation: RAT, LIVER, S-9, AROCLOR 1254 (10%), Method: PREINCUBATION inactive; negative | Test System: AMES SALMONELLA TYPHIMURIUM, Strain/Indicator: TA7001, Metabolic Activation: NONE, Method: FLUCTUATION (MICROTITER) inactive; negative | Test System: AMES SALMONELLA TYPHIMURIUM, Strain/Indicator: TA7001, Metabolic Activation: RAT LIVER S-9, AROCLOR 1254, Method: FLUCTUATION (MICROTITER) inactive; negative | Test System: AMES SALMONELLA TYPHIMURIUM, Strain/Indicator: TA7002, Metabolic Activation: NONE, Method: FLUCTUATION (MICROTITER) inactive; negative | Test System: AMES SALMONELLA TYPHIMURIUM, Strain/Indicator: TA7002, Metabolic Activation: RAT LIVER S-9, AROCLOR 1254, Method: FLUCTUATION (MICROTITER) inactive; negative | Test System: AMES SALMONELLA TYPHIMURIUM, Strain/Indicator: TA7003, Metabolic Activation: NONE, Method: FLUCTUATION (MICROTITER) inactive; negative | Test System: AMES SALMONELLA TYPHIMURIUM, Strain/Indicator: TA7003, Metabolic Activation: RAT LIVER S-9, AROCLOR 1254, Method: FLUCTUATION (MICROTITER) inactive; negative | Test System: AMES SALMONELLA TYPHIMURIUM, Strain/Indicator: TA7004, Metabolic Activation: NONE, Method: FLUCTUATION (MICROTITER) inactive; negative | Test System: AMES SALMONELLA TYPHIMURIUM, Strain/Indicator: TA7004, Metabolic Activation: RAT LIVER S-9, AROCLOR 1254, Method: FLUCTUATION (MICROTITER) inactive; negative | Test System: AMES SALMONELLA TYPHIMURIUM, Strain/Indicator: TA7005, Metabolic Activation: NONE, Method: FLUCTUATION (MICROTITER) inactive; negative | Test System: AMES SALMONELLA TYPHIMURIUM, Strain/Indicator: TA7006, Metabolic Activation: NONE, Method: FLUCTUATION (MICROTITER) inactive; negative | Test System: AMES SALMONELLA TYPHIMURIUM, Strain/Indicator: TA7006, Metabolic Activation: RAT LIVER S-9, AROCLOR 1254, Method: FLUCTUATION (MICROTITER) inactive; negative | Test System: E.COLI, Strain/Indicator: WP2UVRA/PKM101, Metabolic Activation: NONE, Method: PREINCUBATION inactive; negative | Test System: E.COLI, Strain/Indicator: WP2UVRA/PKM101, Metabolic Activation: RAT LIVER S-9, PHENOBARBITAL AND BETA-NAPHTHOFLAVONE, Method: PREINCUBATION inactive; negative
active: Test System: AMES SALMONELLA TYPHIMURIUM, Strain/Indicator: TA7005, Metabolic Activation: RAT LIVER S-9, AROCLOR 1254, Method: FLUCTUATION (MICROTITER) active; positive | Test System: MOUSE LYMPHOMA, Strain/Indicator: L5178Y (TK+/TK-), Metabolic Activation: NONE, Method: SUSPENSION/PLATE active; positive
